Source: patent publication US20240382474A1, “ENPP1 MODULATORS AND USES THEREOF” (Vir Biotechnology, Inc., priority 2021, published 2024)
Entries after “also recorded” stand apart in the source; their conditions may differ.

Tests used:
MC38 tumor xenografts [1] = experiment: Treatment of mice bearing MC38 tumor xenografts (Study 2): tumor volume, survival, body weight; type: in vivo, C57BL/6 mice
Method: (§1) In this study, 6-8 week old female C57BL/6 mice were implanted subcutaneously in the flank with 5×10^5 MC38 cells. Tumors were measured every 2-3 days using a caliper. Body weight was measured every 2-3 days. Dosing initiated on Day (when the average tumor volume reached 50 mm^3 with 15 animals assigned to each treatment group. Animals were dosed orally by gavage with Compound 26 (4 mg/kg PO QD) or Compound 56 (either 1 mg/kg PO QD or 12 mg/kg PO QD).
(§2) A subset of 5 animals from each group were collected on day 10 after the initiation of dosing. Tumors were harvested and lysed via sonication. Supernatants were collected, adjusted for total protein, and assayed using a Luminex cytokine and chemokine panel (Invitrogen) and an IFN-β ELISA. The remaining 10 animals in each group were dosed and monitored through Day 27 or until tumors reached 2 cm in size.
FIG. 2A provides a graph of mean tumor volumes for this set of mice bearing MC38 tumor xenografts. Mice were divided into four groups: (1) control group, who received no treatment (black circles, solid line); (2) mice who received Compound 26 dosed at 4 mg/kg PO QD (grey squares, dashed line); (3) mice who received Compound 56 dosed at 12 mg/kg PO QD (grey triangles, dotted line); and (4) mice who received Compound 56 dosed at 1 mg/kg PO QD (empty circles, dotted dashed line).

MC38 tumor xenografts [2] = experiment: Treatment of mice bearing MC38 tumor xenografts (Study 3); type: in vivo, C57BL/6 mice; conditions: for survival: day to which some mice survived (Kaplan-Meier, FIG. 5B): all untreated mice deceased by day 21
Method: as §1, with “when” for “on Day (when”, “7” for “15”, “once daily through Day 27” for “by gavage with Compound 26 (4 mg/kg PO QD)”, “until tumors reached 2 cm in size.” for “Compound 56 (either 1 mg/kg PO QD or 12 mg/kg PO QD).”
FIGS. 5A-5B provide data for a fourth set of mice bearing MC38 tumor xenografts. FIG. 5A provides a graph of median tumor volumes for this set of mice. Mice were divided into three groups: (1) control group, who received no treatment (circles); (2) mice who received Compound 26 dosed at 4 mg/kg PO QD (squares); and (3) mice who received Compound 56 dosed at 12 mg/kg PO QD (triangles). […] For example, at day 20, tumor volumes for the untreated mice were between 2000 and 3000 mm^3, while for treated mice had tumor volumes between 1000 and 2000 mm^3.

MC38 tumors = experiment: Intratumoral cytokine levels at day 10 in MC38 tumors (Study 2; Luminex cytokine and chemokine panel, IFN-β ELISA); type: in vivo, C57BL/6 mice; conditions: 12 mg/kg QD
Method: as §1, §2
Intratumoral concentrations for each of these inflammatory cytokines are provided in picogram of cytokine per gram of tumor tissue. FIGS. 4B-F each provide data for each of the following: (1) untreated control group (circles); (2) mice treated with 4 mg/kg QD Compound 26 (triangles); (3) mice treated with 12 mg/kg QD […]; and (4) mice treated with […].

[3] = target: T1, human ENPP1 enzymatic domain (Homo sapiens, UniProt P22413); experiment: ENPP1 Enzymatic Inhibition Assay (2′3′-cGAMP substrate, AMP-Glo luminescence); type: biochemical; conditions: 1 nM ENPP1, 20 uM 2′3′-cGAMP, 30 minutes at 37° C.
T1 construct: recombinant protein containing the human ENPP1 enzymatic domain; purchased Viva Biotech
T1 sequence (P22413 191-591 limits assumed): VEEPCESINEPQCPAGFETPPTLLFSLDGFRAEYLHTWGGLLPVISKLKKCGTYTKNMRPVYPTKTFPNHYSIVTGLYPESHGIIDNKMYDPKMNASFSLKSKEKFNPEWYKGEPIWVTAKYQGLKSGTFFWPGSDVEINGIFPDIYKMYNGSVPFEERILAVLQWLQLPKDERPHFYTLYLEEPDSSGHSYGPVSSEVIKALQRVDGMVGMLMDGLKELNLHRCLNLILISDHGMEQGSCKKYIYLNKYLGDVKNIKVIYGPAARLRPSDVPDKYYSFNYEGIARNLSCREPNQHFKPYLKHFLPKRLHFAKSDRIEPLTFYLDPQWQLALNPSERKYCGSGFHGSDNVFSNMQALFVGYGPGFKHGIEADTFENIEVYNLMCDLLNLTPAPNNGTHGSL
Method: The inhibition of ENPP1's phosphodiesterase activity were tested in a purified enzymatic assay using 2′3′-cyclic GAMP as a substrate which allowed for the release of cleaved AMP to be monitored using a luminescent assay.
Putative inhibitors were diluted in assay buffer (50 mM Tris pH 8.0, 250 mM NaCl, 0.5 mM CaCl2), 1 uM ZnCl2, 1% DMSO) and pre-incubated for 15 minutes at 37° C. with recombinant protein containing the human ENPP1 enzymatic domain (Viva Biotech). The enzymatic reaction was initiated upon addition of the 2′3′-cGAMP substrate. The final reaction concentrations were 1 nM ENPP1 and 20 uM 2′3′-cGAMP substrate in a 25 uL volume. Inhibitor concentrations ranged from 10 uM to 0.056 nM. The reaction was incubated for 30 minutes at 37° C.
After reacting for 30 minutes, the amount of AMP generated from the cleavage of 2′3′-cGAMP was determined using the Promega AMP-Glo method according to the manufacturer's protocol. First, AMP-Glo reagent 1 was added and incubated with the reaction mix for 1 hour at room temperature. Second, AMP Detection solution was added and the mixture was incubated for an additional hour. The luminescence of the mixture was read on a Perkin Elmer Ensight plate reader.
The maximum and minimum levels of ENPP1 activity were established using no inhibitor and no enzyme controls, respectively. The activity observed using ENPP1 inhibitors was quantified as the percent of activity relative to these controls. IC50 values were calculated using CDD Vault by fitting a sigmoidal variable slope nonlinear regression model to the data.

MC38 tumor xenografts [4] = experiment: Treatment of mice bearing MC38 tumor xenografts (Study 1); type: in vivo, C57BL/6 mice
Method: Ten week old female C57BL/6 mice were implanted subcutaneously in the flank with 5×10^5 MC38 cells. Tumors were measured every 2-3 days using a caliper. Body weight was measured every 2-3 days. Dosing initiated on Day (when the average tumor volume reached 50 mm^3. Five animals were assigned to each treatment group. Animals were dosed orally by gavage with Compound 26 for 10 days and were monitored through Day 32 or until tumors reached 2.000 mm^3 in volume.
FIG. 1 provides a graph of mean tumor volumes for this set of mice bearing MC38 tumor xenografts. Mice were divided into three groups: (1) control group, who received no treatment (black circles, solid line); (2) mice who received Compound 26 dosed at 4 mg/kg PO QD (grey triangles, dashed lines); and (3) mice who received Compound 26 dosed at 60 mg/kg PO QD (grey squares, dotted line). In each treatment group, compound 26 was administered once a day for 10 consecutive days, at which time, treatment was ceased.

Row | Structure (SMILES) | mean tumor volume compared to the untreated group (FIG. 2A) (MC38 tumor xenografts [1]; 1 mg/kg PO QD) | survival: day to which at least one mouse survived (Kaplan-Meier, FIG. 3A) (MC38 tumor xenografts [1]; 1 mg/kg PO QD, all untreated mice deceased by day 22) | mean tumor volume compared to the untreated group (FIG. 2A) (MC38 tumor xenografts [1]; 12 mg/kg PO QD) | survival: day to which at least one mouse survived (Kaplan-Meier, FIG. 3A) (MC38 tumor xenografts [1]; 12 mg/kg PO QD, all untreated mice deceased by day 22) | median tumor volumes compared to the untreated group (FIG. 5A) (MC38 tumor xenografts [2]; 12 mg/kg PO QD) | survival: day to which some mice survived (Kaplan-Meier, FIG. 5B) (MC38 tumor xenografts [2]; 12 mg/kg PO QD) | median intratumoral concentration of eotaxin (FIG. 4F) (MC38 tumors) | median intratumoral concentration of interferon beta (IFN beta) (FIG. 4B) (MC38 tumors) | median intratumoral concentration of interferon γ-induced protein 10 kDa (IP-10) (FIG. 4C) (MC38 tumors) | median intratumoral concentration of macrophage inflammatory protein-1-beta (MIP-1beta) (FIG. 4D) (MC38 tumors) | median intratumoral concentration of monocyte-chemotactic protein 3 (MCP-3) (FIG. 4E) (MC38 tumors) | IC50 [3] | mean tumor volume compared to the untreated group (FIG. 2A) (MC38 tumor xenografts [1]; 4 mg/kg PO QD) | survival: day to which some mice survived (Kaplan-Meier, FIG. 3A) (MC38 tumor xenografts [1]; 4 mg/kg PO QD, all untreated mice deceased by day 22) | median tumor volumes compared to the untreated group (FIG. 5A) (MC38 tumor xenografts [2]; 4 mg/kg PO QD) | survival: day to which some mice survived (Kaplan-Meier, FIG. 5B) (MC38 tumor xenografts [2]; 4 mg/kg PO QD) | mean tumor volume compared to the control group (FIG. 1) (MC38 tumor xenografts [4]; 4 mg/kg PO QD for 10 days) | mean tumor volume compared to the control group (FIG. 1) (MC38 tumor xenografts [4]; 60 mg/kg PO QD for 10 days)
1 | COc1ccc2c(Nc3ccc([S@@](=N)(=O)NC[C@@H](C)O)cc3)ccnc2c1 [Compound 56, (S)-N-((R)-2-hydroxypropyl)-4-((7-methoxyquinolin-4-yl)amino)benzenesulfonimidamide] | smaller | > 27 days | smaller; also recorded: greatest reduction in tumor volume | > 27 days | significantly lower | ≥ 27 days | ~15000 pg eotaxin/g of tumor | > 400 pg IFNbeta/g of tumor | 3000-4000 pg IP-10/g of tumor | ~9000 pg MIP-1 beta/g of tumor | 20000-30000 pg MCP-3/g of tumor | < 0.01 µM |  |  |  |  |  | 
2 | COc1ccc2c(Oc3ccc([S@@](=N)(=O)NC[C@@H](C)O)cc3)ccnc2c1 [Compound 26, (S)-N-((R)-2-hydroxypropyl)-4-((7-methoxyquinolin-4-yl)oxy)benzenesulfonimidamide] |  |  |  |  |  |  |  |  |  |  |  | < 0.01 µM | smaller | 24 days | significantly lower | 24 days | lower | lower
